# Key:
# [1] = molecular target: T1, Ev1 protein (Homo sapiens, UniProt Q9UI08); assay: Influence of low molecular weight compounds on single-stranded DNA catenation activity of the Ev1 protein; assay type: biochemical; conditions: compound 1, 5, 10 and 20 μM; 4 μM Ev1 protein; 20 μM φ×174 single-stranded DNA; 37° C., 1 hour
# T1 construct: in accordance with the protocols used in purification of the entire-length Ev1 protein; 6xHis (N, cleaved yes); made in house; host or cells: E. coli BL21 (DE3) codon plus-RP, pET15b vector
# T1 sequence (Q9UI08 1-418 isoform Q9UI08-2): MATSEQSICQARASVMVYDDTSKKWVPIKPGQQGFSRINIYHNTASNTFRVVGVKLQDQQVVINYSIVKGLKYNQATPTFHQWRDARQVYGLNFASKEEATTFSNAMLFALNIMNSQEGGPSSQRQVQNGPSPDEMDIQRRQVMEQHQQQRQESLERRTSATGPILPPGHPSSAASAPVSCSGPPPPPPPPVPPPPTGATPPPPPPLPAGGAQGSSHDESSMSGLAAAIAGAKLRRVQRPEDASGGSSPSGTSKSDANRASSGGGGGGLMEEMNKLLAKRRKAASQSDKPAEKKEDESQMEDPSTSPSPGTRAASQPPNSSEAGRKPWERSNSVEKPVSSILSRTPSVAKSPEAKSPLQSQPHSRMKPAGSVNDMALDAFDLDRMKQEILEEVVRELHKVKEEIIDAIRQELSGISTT
# Method: With regard to the influence of each compound on the catenation activity of the Ev1 protein (FIGS. 14a, 15a, 16, 17a, and 18a), each compound in final concentrations of 1, 5, 10, and 20 μM, a φ×174 single-stranded DNA in a final concentration of 20 μM, and an Ev1 protein in a final concentration of 4 μM were added to 10 μl of a reaction solution (20 mM HEPES, 1 mM DTT, 100 μg/ml BSA, and 1 mM MgCl2). The obtained mixture was reacted at 37° C. for 1 hour. After completion of the reaction, 2 μl of a PK solution (0.2% SDS and 1.3 mg/ml proteinase K) was added to the reaction solution, and the obtained mixture was then reacted at 37° C. for 15 minutes. Thereafter, the reaction product was electrophoresed on a 0.8% HGT agarose gel, and DNA was then detected with SYBR Gold.
# [2] = molecular target: T1, Ev1 protein; assay: Gel shift method, single-stranded DNA binding activity of the Ev1 protein in the presence of compounds; conditions: compound 1, 5, 10 and 20 μM; 0.3 μM Ev1 protein; 20 μM φ×174 single-stranded DNA; 37° C., 15 minutes
# Method: Moreover, in a gel shift method involving single-stranded DNA binding activity (FIGS. 14b, 15b, 16b, 17b, and 18b), each compound in final concentrations of 1, 5, 10, and 20 μM, a φ×174 single-stranded DNA in a final concentration of 20 μM, and an Ev1 protein in a final concentration of 0.3 μM were added to 20 μl of a reaction solution (20 mM HEPES, 1 mM DTT, 100 μg/ml BSA, and 1 mM MgCl2). The obtained mixture was reacted at 37° C. for 15 minutes. Thereafter, the reaction product was electrophoresed on a 0.8% HGT agarose gel, and DNA was then detected with ethidium bromide.
Compound,effect on single-stranded DNA catenation activity of the Ev1 protein [1],influence on activity of the Ev1 protein to bind to single-stranded DNA (gel shift) [2]
"Nc1ccc2c(=S)c3ccccc3[nH]c2c1 [3-ATA, 3-amino-9-thio(10H)-acridone]",inhibits the single-stranded DNA catenation activity of the Ev1 protein,does not change the single-stranded DNA binding activity of the Ev1 protein
O=S(=O)(O)c1cc(N=C=S)ccc1C=Cc1ccc(N=C=S)cc1S(=O)(=O)O [DIDS],inhibits the single-stranded DNA catenation activity of the Ev1 protein,inhibits the single-stranded DNA binding activity of the Ev1 protein
CC[C@@]1(O)C[C@H](O[C@H]2C[C@H](N(C)C)[C@H](O[C@H]3C[C@H](O)[C@H](O[C@H]4CCC(=O)[C@H](C)O4)[C@H](C)O3)[C@H](C)O2)c2c(cc3c(c2O)C(=O)c2c(O)cccc2C3=O)[C@H]1C(=O)OC [aclarubicin],inhibits the activity of an Ev1 protein to catenate single-stranded DNA molecules,does not change the activity of the Ev1 protein to bind to circular single-stranded DNA
"Cc1cc(N)c2ccccc2[n+]1CCCCCCCCCC[n+]1c(C)cc(N)c2ccccc21 [dequalinium, dequalinium chloride]",inhibits the single-stranded DNA catenation activity of the Ev1 protein,changes the binding manner of the Ev1 protein that binds to a single-stranded DNA
β-rubromycin,inhibits the single-stranded DNA catenation activity of the Ev1 protein,changes the binding manner of the Ev1 protein that binds to a single-stranded DNA

# Reference: patent publication US20100068766A1, “COMPOSITION FOR CLEAVING AND/OR CONNECTING SINGLE STRAND DNA” (WASEDA UNIVERSITY, priority 2007, published 2010)
